{"source": "patent US20030135033A1", "about": "“Compounds and methods for the identification and/ or validation of a target” (priority 2002, published 2003)", "key": {"PI 3-kinase": {"tested_on": "PI 3-kinase", "experiment": "Akt phosphorylation induced by PTEN GeneBlocs in 3Y1 cells in presence of PI 3-kinase inhibitor", "type": "cell-based, rat", "settings": "30 nM PTEN 53 or 57, 48 h, 10 μM LY294002 30 min before lysis"}, "MEK": {"tested_on": "MEK", "experiment": "Akt phosphorylation induced by PTEN GeneBlocs in 3Y1 cells in presence of MEK inhibitor", "type": "cell-based, rat", "settings": "30 nM PTEN 53 or 57, 48 h, 50 μM PD98059 30 min before lysis", "experimental": "In this experiment two different antisense oligonucleotides (PTEN 53 and PTEN 57) were used together with further compounds, namely DMSO (D), Ly294002 (Ly) and PD98059 (PD) being an inhibitor for MEK-½ kinase. More particularly, the first test was carried out using the antisense oligonucleotide PTEN 53 in combination either with DMSO, LY or PD. The same experiment was carried out using PTEN 57 also directed against PTEN mRNA, and using GBC as defined above as a control antisense oligonucleotide. More particularly, 3Y1 cells on 10 cm plates were transfected in triplicates with 30 nM of the GeneBlocs PTEN 53, 57 or with GBC for 48 h. 30 min before lysis the cells were treated with 10 μM PI 3-kinase inhibitor LY294002 (LY), 50 μM MEK inhibitor PD98059 (PD) or with the vehicle DMSO (D). The positions of p110, phosphorylated Akt (P*-Akt) and PTEN are indicated on the right. […]\nPools of stably transfected HeLa cells in growth medium were stimulated with 200 nM 4-OHT in dimethylsulfoxide (DMSO) or with DMSO at 37° C. for 20 h. In experiments in which the effect of LY294002 or PD98059 was analyzed, the reagents were added in DMSO at 10 μg/ml or 50 μg/ml 30 min to 1 h before lysis. […]"}, "Hela cells": {"tested_on": "Hela cells", "experiment": "Cell growth on matrigel", "type": "cell-based, human", "settings": "48 h transfection, then 48 to 72 h on matrigel, versus control GeneBloc", "from_the_text": "More particularly, a schematic pathway with PTEN inhibiting PI-3K activity is shown which would normally phosphorylate Akt thus leading to proliferation, survival and migration of HeLa cells as a model system for PTEN +/+ cells. FIG. 9 B presents the Western immunoblot analysis of an experiment studying the influence of PTEN specific antisense oligonucleotide or a control antisense nucleotide designated as mismatch GeneBloc™. PTEN is only present in the control sample, but is absent when PTEN-specific antisense oligonucleotides are used. The successful knockdown of PTEN causes phosphorylation of Akt, indicative of induction of the signalling pathway. […] Growth on matrigel is used as a surrogate in vitro assay for metastatic or invasive cell growth. […]\nLoss of PTEN function has been correlated with an increased metastatic growth potential in late stage human cancers (Cantley, L. C. and Neel, B. G. (1999). New insights into tumor suppression: PTEN suppresses tumor formation by restraining the phosphoinositide 3-kinase/AKT pathway. Proc Natl Acad Sci U S A 96, 4240-4245; Ali, I. U. (2000). Gatekeeper for endometrium: the PTEN tumor suppressor gene. J Natl Cancer Inst 92, 861-863). […] HeLa cells expressing an inducible version of a constitutively active PI 3-kinase, p110* […] were analyzed in parallel. […]"}}, "note": "d = 2'-deoxy (DNA); m = 2'-O-methyl"}
{"compound": "O=c1cc(N2CCOCC2)oc2c(-c3ccccc3)cccc12", "note": "[LY294002, 2-(4-morpholinyl)-8-phenylchromone]", "values": [{"measurement": "increase in Akt phosphorylation induced by the PTEN GeneBlocs", "setting": "PI 3-kinase", "result": "completely abrogated"}]}
{"compound": "COc1cccc(-c2cc(=O)c3ccccc3o2)c1N", "note": "[PD98059]", "values": [{"measurement": "increase in Akt phosphorylation induced by the PTEN GeneBlocs", "setting": "MEK", "result": "had no effect"}]}
{"compound": "cuggaucAGAGTCAGTgguguca (CUGGAUCAGAGTCAGTGGUGUCA; sugars from the 5' end m7 d9 m7, backbone and methylation of C not given here; DNA gap phosphorothioate-linked, ends capped, inverted abasic or similar, further chemistry not fully specified) [PTEN 52, third generation antisense oligonucleotide (GeneBloc) against PTEN]", "values": [{"measurement": "growth on matrigel", "setting": "Hela cells", "result": "increased potential to form network structures on matrigel and grew better"}]}
